The values below come from patent publication US20250333398A1, “MONOARYL AND HETARYL SUBSTITUTED INDAZOLES AND BENZIMIDAZOLES AS STING ANTAGONISTS AND THE USE THEREOF AS MEDICAMENT” (Boehringer Ingelheim International GmbH, priority 2024, published 2025).

The subject of assay [1] is T1, wild-type (GRR) human STING cGAMP binding domain (residues 155-341).
T1 construct: His-TEV-hSTING (WT); TEV protease cleavage site (N); made in house; host or cells: E. coli BL21 DE3
Kind of assay: Differential Scanning Fluorimetry (DSF), stability of STING protein against thermal denaturation. The settings on record: 100 uM compound, 3 uM target protein. How it is done: Dye fluorescence is quenched in aqueous environment and increases upon association of the dye with the hydrophobic parts of the unfolding protein. […] The inflection point of the curve represents the “melting” temperature of the protein (Tm) which is calculated numerically using the Boltzmann equation.
Method: The thermal stability of the STING protein was measured using a specific expression construct of the cGAMP binding domain of wild-type (GRR) human STING comprising residues 155-341 and a N-terminal 8x His-tag in assay buffer containing 20 mM Tris, 150 mM NaCl at pH7.5.
The assay uses Hard-Shell®PCR Plates 384-Well CLR/WHT (Catalog #HSP3805, BIO-RAD), Microseal®‘B’ Adhesive Seals for PCR Plates (Catalog #MSB-1001, BIO-RAD) and was run on a CFX384 Real-Time System (Bio-Rad).
A DMSO stock solution of SYPRO orange (SIGMA S5692-500UL) was prepared.
Compound stock solutions (10 mM in DMSO) were diluted 1:2 in DMSO to an intermediate compound concentration of 5 mM and then further diluted 1:40 in assay buffer resulting in a compound concentration of 125 μM and 2.5% DMSO.
Fluorescent dye stock solution (5000×SYPRO Orange) was then mixed with target protein and buffer to a concentration of 15 uM Protein and 25×SYPRO Orange. 2 ul of this protein-dye-mixture was added to 8 ul compound solution. Final volume was 10 uL. 3-6 well positions were used as negative control (protein with 2% DMSO). The plates were prepared for duplicate measurement and centrifuged for 2 min at 1000 g. In the measurement, 160 cycles of 0.5° C. were used (temperature ramp 15 s/cycle, 15° C. to 95° C.).
Final Assay concentrations for compound characterization were as follows:
100 uM compound, 3 uM target protein, 5×SYPRO Orange, 2% DMSO in 10 ul. All dispensing steps were performed using a HamiltonStar pipetting robot (Hamilton).
Dissociation curves were processed in Bio-Rad CFX Manager. Peak type was set to “negative”.
Compound codes for screen were assigned in the plate layout.
Two replicates of TM measurements were averaged, and the standard deviation was calculated. In cases of SD>1.5° C. the measurement was repeated.
The melting point (Tm) obtained for STING protein alone was subtracted from T obtained for protein incubated with ligand to generate ΔTm values.
Protein production and purification: The protein used for the biophysical experiments was a recombinant human STING protein comprising its cytosolic ectodomain. A codon optimized DNA sequence (for expression in Escherichia coli) encoding amino acid residues 155 to 341 (Swiss Prot Q86WV6) of human STING (WT) was synthesized by GeneArt (Regensburg, Germany) and inserted into a pET17b E. coli expression vector. The protein construct encodes an N-terminal 8× His-tag followed by tobacco etch virus protease (TEV) cleavage site and the above STING gene sequence. The resulting protein sequence for the used STING variant is listed below:
For expression of recombinant human STING above construct was transformed into E. coli BL21 DE3 strain and grown in shake flasks in LB-medium at 37° C. Expression was induced by addition of isopropyl β-D-1-thiogalactopyranoside to a final concentration of 1 mM and cultures shaken overnight. Cell pellets were centrifuged and stored at −70° C. until further use. Protein was purified by cell thawing in lysis buffer (20 mM TRIS-HCl, pH 8, 300 mM NaCl, 2 mM mercaptoethanol, 20 mM imidazole, Complete Protease Inhibitor (Roche) and DNase (Roche)), followed by metal affinity purification using Ni-NTA resins and elution buffer consisting of 20 mM TRIS-HCl, pH 8, 300 mM NaCl, 2 mM mercaptoethanol, 300 mM imidazole and size exclusion chromatography in running buffer (20 mM TRIS-HCl, pH 8, 100 mM NaCl, 2 mM DTT). The peak fraction was collected and concentrated to 2.5 mg/mL.

Another assay concerns the target T2, human STING WT (R232).
T2 construct: purchased Cisbio 64BDSTGPEG
The experiment in a line: Human STING HTRF binding assay (competitive, Cisbio 64BDSTGPEG). The following applies: 6His tagged human STING WT R232, competition with STING ligand-d2. How it is done: Binders to human STING WT (R232) were identified using a competitive HTRF assay format (Cisbio 64BDSTGPEG), which uses d2-labeled STING ligand, a 6His tagged human STING protein, and an anti 6His Cryptate-labeled antibody. Compounds compete with the STING ligand-d2 and thereby prevents FRET from occurring, which can be measured by an EnVision™ reader (PerkinElmer).
Assay method: Compounds were delivered as 10 mM DMSO solution, serially diluted by an Agilent Bravo Workstation and transferred to the 384 well assay plate (Perkin Elmer #6005359) using a Cybiwell dispenser. Typically, 8 concentrations were used with the highest concentration at 10 μM or 1 μM in the final assay volume followed by ^˜1:5 dilution steps. DMSO concentration was set to 1% in the final assay volume. The 384 well assay plate contained 20 test compounds and DMSO in column 23 and 24. A cGAMP standard dilution row was prepared according to the manufacturer and transferred to each assay plate. After transfer of compound solution or dilution buffer for negative (high) and positive (low) controls, 5 μl of the human STING protein (cyclic binding domain (residues 138-379) of the WT R232 human version, fused to a 6 His tag at the Nter part; 1:50 dilution in detection buffer) were dispensed to all wells except of the positive control, which received detection buffer only. Plates were the centrifuged for 20 sec at 1000 rpm. After that, 10 μl of Anti-6His-Cryptate antibody/Sting ligand-d2 mix was added to all wells using a Multidrop combi dispenser, followed by another 20 sec/1000 rpm centrifugation step. After an incubation of the plates for 180 min at room temperature, […] at […] (HTRF ratio) was measured using an Envison Reader (PerkinElmer)
Data evaluation and calculation: For data evaluation and calculation, HTRF ratios were calibrated using the cGAMP standard curve. After that, the measurement of the low control was set as 0% control and the measurement of the high control was set as 100% control. The IC50 values were calculated using the standard 4 parameter logistic regression formula. Calculation: [y=(a−d)/(1+(x/c)^b)+d], a=low value, d=high value; x=conc M; c=IC50 M; b=slope;

SMILES strings stand for the structures.

In general, IC50 refers to the point on the concentration scale where inhibition reaches its midpoint. High values mean weaker potency in that assay, low ones greater potency in that assay. Turning to `Cn1nc(-n2cc3c(-c4nc(-c5ccc(P(C)(C)=O)cc5OC(F)(F)F)n(C)c4C4CC4)cccc3n2)cc1C(F)F` [Example 2, 4-{5-cyclopropyl-2-[4-(dimethylphosphoryl)-2-(trifluoromethoxy)phenyl]-1-methyl-1H-imidazol-4-yl}-2-[5-(difluoromethyl)-1-methyl-1H-pyrazol-3-yl]-2H-indazole], the “DSF ΔTm (K)” value in assay [1] is reported as 30 K. Moreover, the IC50 on human STING WT (R232) turned out to be 25.4 nM.
For `COc1nn(C)cc1-n1cc2c(-c3nc(-c4ccc(C(=O)N(C)C)cc4OC(F)(F)F)n(C)c3C3CC3)cccc2n1` [Example 3, 4-{5-cyclopropyl-4-[2-(3-methoxy-1-methyl-1H-pyrazol-4-yl)-2H-indazol-4-yl]-1-methyl-1H-imidazol-2-yl}-N,N-dimethyl-3-(trifluoromethoxy)benzamide], in that order: 26 K and 122 nM.
For `CCOc1nn(C)cc1-n1cc2c(-c3nc(-c4ccc(C(N)=O)cc4OC(F)(F)F)n(C)c3C3CC3)cccc2n1` [Example 4, 4-{5-cyclopropyl-4-[2-(3-ethoxy-1-methyl-1H-pyrazol-4-yl)-2H-indazol-4-yl]-1-methyl-1H-imidazol-2-yl}-3-(trifluoromethoxy)benzamide], in that order: 30 K and 40.9 nM.
For `COc1nn(C2CC2)cc1-n1cc2c(-c3nc(-c4ccc(C(N)=O)cc4OCC(F)F)n(C)c3C3CC3)cccc2n1` [Example 6, 4-{5-cyclopropyl-4-[2-(1-cyclopropyl-3-methoxy-1H-pyrazol-4-yl)-2H-indazol-4-yl]-1-methyl-1H-imidazol-2-yl}-3-(2,2-difluoroethoxy)benzamide], in that order: 28 K and 16 nM.
Consider `CC[P@](C)(=O)c1ccc(-c2nc(-c3cccc4nn(-c5cc(C(F)F)n(C)n5)cc34)c(C3CC3)n2C)c(OC(F)(F)F)c1` [Example 7, 4-(5-cyclopropyl-2-{4-[(S)-ethyl(methyl)phosphoryl]-2-(trifluoromethoxy)phenyl}-1-methyl-1H-imidazol-4-yl)-2-[5-(difluoromethyl)-1-methyl-1H-pyrazol-3-yl]-2H-indazole], for which, in assay [1], the “DSF ΔTm (K)” value is reported as 30 K. The IC50 at human STING WT (R232) worked out at 19.7 nM.
For `Cn1nc(-n2cc3c(-c4nc(-c5ccc(C(N)=O)cc5OC(F)(F)F)n(C)c4C4CC4)cccc3n2)cc1C(F)(F)F` [Example 8, 4-(5-cyclopropyl-1-methyl-4-{2-[1-methyl-5-(trifluoromethyl)-1H-pyrazol-3-yl]-2H-indazol-4-yl}-1H-imidazol-2-yl)-3-(trifluoromethoxy)benzamide], in that order: 32 K and 85.3 nM.
For `COc1nn(C2CC2)cc1-n1cc2c(-c3nn(-c4ccc(P(C)(C)=O)cc4C)c(C)c3C(C)C)cccc2n1` [Example 9, 2-(1-cyclopropyl-3-methoxy-1H-pyrazol-4-yl)-4-{1-[4-(dimethylphosphoryl)-2-methylphenyl]-5-methyl-4-(propan-2-yl)-1H-pyrazol-3-yl}-2H-indazole], in that order: 22 K and 17.6 nM.
Consider `CC[P@](C)(=O)c1ccc(-c2nc(-c3cccc4nn(-c5cc(C(F)(F)F)n(C)n5)cc34)c(C3CC3)n2C)c(OC(F)(F)F)c1` [Example 10, 4-(5-cyclopropyl-2-{4-[(S)-ethyl(methyl)phosphoryl]-2-(trifluoromethoxy)phenyl}-1-methyl-1H-imidazol-4-yl)-2-[1-methyl-5-(trifluoromethyl)-1H-pyrazol-3-yl]-2H-indazole], for which the “DSF ΔTm (K)” value in assay [1] is given as 30 K. In addition, the IC50 on human STING WT (R232) is 31.9 nM.
For `COc1nn(CC(C)(C)O)cc1-n1cc2c(-c3nc(-c4ccc(C(N)=O)cc4OC(F)(F)F)n(C)c3C3CC3)cccc2n1` [Example 11, 4-(5-cyclopropyl-4-{2-[1-(2-hydroxy-2-methylpropyl)-3-methoxy-1H-pyrazol-4-yl]-2H-indazol-4-yl}-1-methyl-1H-imidazol-2-yl)-3-(trifluoromethoxy)benzamide], in that order: 26 K and 42.3 nM.
Regarding `COCc1cc(C(N)=O)ccc1-c1nc(-c2cccc3nn(-c4cn(C5CC5)nc4OC)cc23)c(C2CC2)n1C` [Example 12, 4-{5-cyclopropyl-4-[2-(1-cyclopropyl-3-methoxy-1H-pyrazol-4-yl)-2H-indazol-4-yl]-1-methyl-1H-imidazol-2-yl}-3-(methoxymethyl)benzamide], in assay [1], the “DSF ΔTm (K)” value was found to be 25 K. Moreover, the IC50 at human STING WT (R232) turned out to be 9.6 nM.
For `CC[P@@](C)(=O)c1ccc(-c2nc(-c3cccc4nn(-c5cn(C6CC6)nc5OC)cc34)c(C3CC3)n2C)c(OC(F)(F)F)c1` [Example 13, 4-(5-cyclopropyl-2-{4-[(R)-ethyl(methyl)phosphoryl]-2-(trifluoromethoxy)phenyl}-1-methyl-1H-imidazol-4-yl)-2-(1-cyclopropyl-3-methoxy-1H-pyrazol-4-yl)-2H-indazole], in that order: 27 K and 18.9 nM.
For `CC[P@](C)(=O)c1ccc(-c2nc(-c3cccc4nn(-c5cn(C6CC6)nc5OC)cc34)c(C3CC3)n2C)c(OC(F)(F)F)c1` [Example 14, 4-(5-cyclopropyl-2-{4-[(S)-ethyl(methyl)phosphoryl]-2-(trifluoromethoxy)phenyl}-1-methyl-1H-imidazol-4-yl)-2-(1-cyclopropyl-3-methoxy-1H-pyrazol-4-yl)-2H-indazole], in that order: 30 K and 6.49 nM.
For `COc1nn(C2CC2)cc1-n1cc2c(-c3nc(-c4ccc(C(=O)N(C)C)cc4OC(F)(F)F)n(C)c3C3CC3)cccc2n1` [Example 15, 4-{5-cyclopropyl-4-[2-(1-cyclopropyl-3-methoxy-1H-pyrazol-4-yl)-2H-indazol-4-yl]-1-methyl-1H-imidazol-2-yl}-N,N-dimethyl-3-(trifluoromethoxy)benzamide], in that order: 25 K and 32.9 nM.
